IC50 data for 42 compounds are collected here from patent US20240246954A1, “COMPOSITIONS AND METHODS FOR INHIBITING KRAS” (TheRas, Inc., priority 2021, published 2024).

Assay [1] concerns the target T1, Avi-KRAS G12D (1-169) GppNHp/RAF1 RBD-3×FLAG (52-151) (Homo sapiens, UniProt P01116, G12D).
T1 construct: Avi-KRAS G12D (1-169) GppNHp
Nature of the assay: HTRF Raf1-KRAS G12D-GppNHp disruption assay. It is filed as biochemical. The conditions noted are these: 1 h incubation. Here is the method: (§1) The HTRF assay employed the following protocol:
(§2) Compounds were dispensed in assay plate (384-well, Grenier Bione #784075) using Echo (model 555) with dose response settings: 200 nL final volume, titration from 100 μM as a 10-point dilution series. Protein mix was prepared in assay buffer, and dispensed on plates, 10 μL per well, then incubated for 1 h at room temperature, with 700 rpm shaking. Reagents mix was prepared and dispensed on plates, 10 μL per well, then incubated for 1 h at room temperature, with 700 rpm shaking.
(§3) Plates were analyzed on an Envision plate reader using the following setting: Excitation 320 nm, Bandwidth […]; Emission 615 nm, Bandwidth […], Gain 100%, Flashes 100, Lag 60 μs. Data was reported as percentage of activity, with DMSO as 100%. Data was plotted and analyzed using Prism 8.

Assay [2] addresses T2, Avi-KRAS G12D/Q25A (1-169) GppNHp/3×FLAG-PI3KCA (157-299) (Homo sapiens, UniProt P01116, G12D/Q25A).
T2 construct: Avi-KRAS G12D/Q25A (1-169) GppNHp
The experiment in a line: HTRF PI3KCA-KRAS G12D/Q25A-GppNHp disruption assay. The format is biochemical. The following applies: 1 h incubation. Here is the method: as §1, §2, §3

T2 sequence (P01116 1-169 isoform P01116-2 G12D/Q25A limits assumed): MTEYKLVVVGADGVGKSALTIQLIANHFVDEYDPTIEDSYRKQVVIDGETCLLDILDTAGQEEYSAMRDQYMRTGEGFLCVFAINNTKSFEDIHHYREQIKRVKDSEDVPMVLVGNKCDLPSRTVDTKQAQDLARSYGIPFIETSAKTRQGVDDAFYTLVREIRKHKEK
T1 sequence (P01116 1-169 isoform P01116-2 G12D limits assumed): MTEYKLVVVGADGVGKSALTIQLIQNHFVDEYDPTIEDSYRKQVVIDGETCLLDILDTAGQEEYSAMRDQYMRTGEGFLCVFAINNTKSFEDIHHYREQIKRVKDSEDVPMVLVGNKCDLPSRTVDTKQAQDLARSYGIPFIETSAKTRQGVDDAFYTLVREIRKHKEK

Take `Nc1nc2c(-c3c(C(F)(F)F)cc4c(N5CCNCC5)nc(OC[C@@H]5CCCN5CCF)nc4c3F)ccc(F)c2s1` [Compound 168]: the half-inhibitory concentration (IC50) (commonly the concentration that gives 50% inhibition) in assay [1] is 10 to 30 µM.

`Nc1nc2c(-c3c(OC(F)F)cc4c(N5CCNCC5)nc(OCC56CCCN5CCC6)nc4c3F)ccc(F)c2s1` [Compound 234, 4-(6-(difluoromethoxy)-8-fluoro-4-(piperazin-1-yl)-2-((tetrahydro-1H-pyrrolizin-7a(5H)-yl)methoxy)quinazolin-7-yl)-7-fluorobenzo[d]thiazol-2-amine]: the half-inhibitory concentration (IC50) in assay [1] and in assay [2] was 1 to 10 µM in each case.

As for `CN1CCC[C@H]1COc1nc(NC2CN(C(=O)CN)C2)c2cc(-c3ccoc3)c(-c3ccc(F)c4sc(N)nc34)c(F)c2n1` [Compound 146], the IC50 in assay [1] is 1 to 10 µM; in assay [2], 10 to 30 µM.

As for `CNc1nc2c(-c3c(Cl)cc4c(NCCN)nc(OC[C@@H]5CCCN5C)nc4c3F)ccc(F)c2s1` [Compound 87], the IC50 in assay [1] and in assay [2] was 10 to 30 µM throughout.

For the compound `CN1CCC[C@H]1COc1nc(NC2CN(C(=O)CN)C2)c2cc(C(F)(F)F)c(-c3ccc(F)c4sc(N)nc34)c(F)c2n1` [Compound 114], the IC50 in assay [1] and in assay [2] was 1 to 10 µM in each case.

`Nc1nc2c(-c3c(C(F)(F)F)cc4c(NC5CN(C(=O)C6CN6)C5)nc(OCC56CCCN5CCC6)nc4c3F)ccc(F)c2s1` (stereo not drawn) [Compound 235]: the IC50 in assay [1] was 1 to 10 µM; in assay [2], 10 to 30 µM.

On to `Nc1nc2c(-c3c(C(F)(F)F)cc4c(NC5C[C@H]6CCC5N6)nc(OCC56CCCN5CCC6)nc4c3F)ccc(F)c2s1` (stereo partly drawn) [Compound 286], for which the IC50 in assay [1] and in assay [2] was 0.1 to 1 µM throughout.

`Nc1nc2c(-c3c(OC(F)(F)F)cc4c(N5CC6CCC(C5)N6)nc(OC[C@@]56CCCN5C[C@H](F)C6)nc4c3F)ccc(F)c2o1` [Compound 233]: the IC50 in assay [1] and in assay [2] was 1 to 10 µM throughout.

Consider `CC1(C)CN2CCCC2(COc2nc(N3CCNCC3)c3cc(C(F)(F)F)c(-c4ccc(F)c5sc(N)nc45)c(F)c3n2)C1` (stereo not drawn) [Compound 198], for which the IC50 in assay [1] and in assay [2] was 1 to 10 µM in each case.

`Nc1nc2c(-c3c(C(F)(F)F)cc4c(N5CCNCC5)nc(OC[C@]56CCCN5C[C@H](F)C6)nc4c3F)ccc(F)c2s1` [Compound 169] returned a half-maximal inhibitory concentration (IC50) in assay [1] of 10 to 30 µM.

Take `CN1CCC(c2nc(NCCN)c3cc(Cl)c(-c4ccc(F)c5sc(N)nc45)c(F)c3n2)CC1` [Compound 103]: the IC50 in assay [1] and in assay [2] was 10 to 30 µM throughout.

As to `Nc1nc2c(-c3c(C(F)(F)F)cc4c(NC5CC6CC[C@H]5N6)nc(OCC56CCCN5CCC6)nc4c3F)ccc(F)c2s1` (stereo partly drawn) [Compound 265], the values for the 50% inhibitory concentration (IC50) in assay [1] and in assay [2] were 0.1 to 1 µM and 1 to 10 µM, respectively.

For the compound `CCN(c1nc(OC[C@@H]2CCCN2C)nc2c(F)c(-c3ccc(F)c4sc(N)nc34)c(Cl)cc12)C1CNC1` [Compound 196], the IC50 in assay [1] and in assay [2] was 10 to 30 µM in each case.

For the compound `C[C@@H]1CNC[C@@H]1N(C)c1nc(OC[C@@]23CCCN2C[C@H](F)C3)nc2c(F)c(-c3ccc(F)c4sc(N)nc34)c(C(F)(F)F)cc12` [Compound 292], the IC50 in assay [1] and in assay [2] was 1 to 10 µM throughout.

Regarding `CC(=O)N1CC(Nc2nc(OC[C@@H]3CCCN3C)nc3c(F)c(-c4ccc(F)c5sc(N)nc45)c(Cl)cc23)C1` [Compound 67], the IC50 in assay [1] and in assay [2] was 10 to 30 µM in each case.

As to `CN(c1nc(OCC23CCCN2CCC3)nc2c(F)c(-c3ccc(F)c4sc(N)nc34)c(C(F)(F)F)cc12)C1CN(C(=O)CN)C1` [Compound 171], in assay [1], the half-inhibitory concentration (IC50) is 1 to 10 µM.

In the case of `CN1CCC[C@H]1COc1nc(N2CCNCC2)c2cc(C3(C#N)CCC3)c(-c3ccc(F)c4sc(N)nc34)c(F)c2n1` [Compound 203, 1-[7-(2-amino-7-fluoro-1,3-benzothiazol-4-yl)-8-fluoro-2-[[(2S)-1-methylpyrrolidin-2-yl]methoxy]-4-piperazin-1-yl-quinazolin-6-yl]cyclobutanecarbonitrile], the 50% inhibitory concentration (IC50) in assay [1] and in assay [2] was 10 to 30 µM each time.

As for `C[C@H]1CNCCN1c1nc(OC[C@@H]2CCCN2C)nc2c(F)c(-c3ccc(F)c4sc(N)nc34)c(Cl)cc12` [Compound 78], the 50% inhibitory concentration (IC50) in assay [1] and in assay [2] was 10 to 30 µM throughout.

Regarding `C[C@@H]1CN(c2nc(OC[C@@]34CCCN3C[C@@H](F)C4)nc3c(F)c(-c4ccc(F)c5sc(N)nc45)c(C(F)(F)F)cc23)CCN1` [Compound 225], the IC50 in assay [1] lay within 1 to 10 µM; in assay [2] it was 10 to 30 µM.

For `CN1C[C@H](OC(F)F)C[C@H]1COc1nc(NC2CNC2)c2cc(Cl)c(-c3ccc(F)c4sc(N)nc34)c(F)c2n1` [Compound 132], the IC50 in assay [1] and in assay [2] was 1 to 10 µM each time.

In the case of `Nc1nc2c(-c3c(OC(F)(F)F)cc4c(N5CC6CC5CN6)nc(OC[C@@]56CCCN5C[C@H](F)C6)nc4c3F)ccc(F)c2s1` (stereo partly drawn) [Compound 240], the half-inhibitory concentration (IC50) in assay [1] and in assay [2] was 1 to 10 µM each time.

As for `CN1CCC[C@H]1COc1nc(NCCN)c2cc(Cl)c(-c3ccc(F)c4nc(N)sc34)c(F)c2n1` [Compound 107], the IC50 in assay [1] and in assay [2] was 10 to 30 µM in each case.

As for `CN(c1nc(OCC23CCCN2CCC3)nc2c(F)c(-c3ccc(F)c4sc(N)nc34)c(C(F)(F)F)cc12)[C@@H]1CCNC1` (single isomer, unassigned) [Compound 238], the half-maximal inhibitory concentration (IC50) in assay [1] and in assay [2] was 1 to 10 µM each time.

Turning to `CN(c1nc(OC[C@@H]2CCCN2C)nc2c(F)c(-c3ccc(F)c4sc(N)nc34)c(Cl)cc12)C1CN(C(=O)CN)C1` [Compound 147], the half-maximal inhibitory concentration (IC50) in assay [1] and in assay [2] was 10 to 30 µM each time.

As for `Nc1nc2c(-c3c(C4CCC4)cc4c(N5CCNCC5)ncnc4c3F)ccc(F)c2s1` [Compound 154], the IC50 in assay [1] and in assay [2] was 10 to 30 µM in each case.

In the case of `CCN(c1nc(OC[C@@H]2CCCN2C)nc2c(F)c(-c3ccc(F)c4sc(N)nc34)c(Cl)cc12)C1CN(C(=O)CN)C1` [Compound 197], the IC50 in assay [1] and in assay [2] was 10 to 30 µM throughout.

On to `Fc1c(-c2ccc(F)c3scnc23)c(C(F)(F)F)cc2c(N3CC4CCC(C3)N4)nc(OCC34CCCN3CCC4)nc12` [Compound 375], for which the concentration for half-maximal inhibition (IC50) in assay [1] and in assay [2] was 10 to 30 µM throughout.

As to `CN1CCC[C@H]1COc1nc(NCCN)c2cnc(-c3ccc(F)c4sc(N)nc34)c(F)c2n1` [Compound 81], the IC50 in assay [1] and in assay [2] was 10 to 30 µM each time.

As for `Nc1nc2c(-c3c(Cl)cc4c(N5CCCNCC5)ncnc4c3F)ccc(F)c2s1` [Compound 242], the IC50 in assay [1] and in assay [2] was 10 to 30 µM throughout.

On to `COc1cc2c(N3CCNCC3)nc(OCC34CCCN3CCC4)nc2c(F)c1-c1ccc(F)c2sc(N)nc12` [Compound 216, 7-fluoro-4-(8-fluoro-6-methoxy-4-(piperazin-1-yl)-2-((tetrahydro-1H-pyrrolizin-7a(5H)-yl)methoxy)quinazolin-7-yl)benzo[d]thiazol-2-amine], for which the IC50 in assay [1] and in assay [2] was 1 to 10 µM throughout.

On to `CN1CCC1COc1nc(NC2CNC2)c2cc(Cl)c(-c3ccc(F)c4sc(N)nc34)c(F)c2n1` (stereo not drawn) [Compound 105], for which the half-inhibitory concentration (IC50) in assay [1] and in assay [2] was 10 to 30 µM each time.

With `CN1CCC[C@H]1COc1nc(NCCN)c2cc(Cl)c(-c3cccc4nc(N)cn34)c(F)c2n1` [Compound 93], the IC50 in assay [1] and in assay [2] was 10 to 30 µM in each case.

As for `CO[C@@H]1C[C@@H](COc2nc(NC3CNC3)c3cc(C(F)(F)F)c(-c4ccc(F)c5sc(N)nc45)c(F)c3n2)N(C)C1` [Compound 122], the half-inhibitory concentration (IC50) in assay [1] and in assay [2] was 1 to 10 µM throughout.

On to `CN1C[C@H](F)C[C@H]1COc1nc(NC2CNC2)c2cc(Cl)c(-c3ccc(F)c4sc(N)nc34)c(F)c2n1` [Compound 106], for which the IC50 in assay [1] and in assay [2] was 1 to 10 µM in each case.

As to `CN(c1nc(OC[C@@H]2C[C@@H](F)CN2C)nc2c(F)c(-c3ccc(F)c4sc(N)nc34)c(C(F)(F)F)cc12)C1CN(C(=O)CN)C1` [Compound 156], the IC50 in assay [1] and in assay [2] was 10 to 30 µM in each case.

On to `C[C@@H]1CN(c2nc(OC[C@@]34CCCN3C[C@@H](F)C4)nc3c(F)c(-c4ccc(F)c5sc(N)nc45)c(C(F)(F)F)cc23)C[C@H](C)N1` [Compound 229], for which the IC50 in assay [1] and in assay [2] was 10 to 30 µM in each case.

The compound `NC(=O)N1CC(Nc2nc(OCC34CCCN3CCC4)nc3c(F)c(-c4ccc(F)c5sc(N)nc45)c(-c4ccoc4)cc23)C1` [Compound 167] gave a half-maximal inhibitory concentration (IC50) in assay [1] of 10 to 30 µM.

For the compound `CN1CCC[C@H]1COc1nc(NC2CN(C(=O)CN)C2)c2cc(C(F)(F)F)c(-c3ccc(F)c4sc(N)nc34)c(F)c2n1` [Compound 130], in assay [1], the IC50 fell in the range of 1 to 10 µM.

For the compound `Nc1nc2c(-c3c(-c4ccoc4)cc4c(N5CC6CC(C5)N6)nc(OCC56CCCN5CCC6)nc4c3F)ccc(F)c2s1` [Compound 194], in assay [1], the IC50 was 1 to 10 µM.

For `NCC(=O)N1CCN(c2nc(OC[C@@H]3CCCN3CC(F)F)nc3c(F)c(-c4ccc(F)c5sc(N)nc45)c(C(F)(F)F)cc23)CC1` [Compound 193], in assay [1], the half-maximal inhibitory concentration (IC50) was in the range of 10 to 30 µM.

As for `Nc1nc2c(-c3c(C(F)(F)F)cc4c(N5CCNCC5)nc(OC[C@@H]5CCCN5CC(F)F)nc4c3F)ccc(F)c2s1` [Compound 172], in assay [1], the IC50 is 10 to 30 µM.

Regarding `CN(c1nc(OCC23CCCN2CCC3)nc2c(F)c(-c3ccc(F)c4sc(N)nc34)c(C(F)(F)F)cc12)C1CN(C(N)=O)C1` [Compound 173], in assay [1], the 50% inhibitory concentration (IC50) lay within 1 to 10 µM.
